From US20230193262A1, “Nucleic acid molecules capable of modulating target gene expression and uses thereof” (KOREA ADVANCED INSTITUTE OF SCIENCE AND TECHNOLOGY, priority 2021, published 2023) come the findings set out here.

{Cy5.5} = Cy5.5 fluorophore label

Type in all cases: cell-based
Series [1] deals with breast cancer cell line MDA-MB-231. Nature of the series: Cell viability / apoptosis in MDA-MB-231. The procedure:
(§1) The miRNA triggers were assayed for cytotoxicity and apoptosis induction, using the CCK-8 (Cell Counting Kit-8) (Dojindo, Kumamoto, Japan) according to the manufacturer's instruction. Cells were incubated in 96-well plates (5×10^3 cells/well) at 37° C. for 24 hours under a 5% CO2 atmosphere, followed by transfection. Three days after transfection, the medium was removed. A 10-fold dilution of CCK-8 solution in DMEM was added to the cells which were then incubated at 37° C. for 2 hours. After incubation, absorbance was read at 450 nm on Tecan Infinite M200 pro microplate reader (Mnnedorf, Switzerland).
The seven linear miRNA triggers prepared above and the positive control siRNA(siBcl-xL) capable of binding to bcL-xL were transfected into the breast cancer cell line MDA-MB-231 in which miR-222 is overexpressed. Cell viability was measured and is depicted in FIG. 32a.
Linear miRNA triggers that could bind to miR-222 and target bcl-xL and mcl-1, respectively, were prepared and transfected alone or in combination into the breast cancer cell line MDA-MB-231. Cell viability was measured and the measurements are depicted in FIG. 34. siRNAs against Mcl-1 and Bcl-xL were used as controls. […]
The hairpin miRNA triggers prepared above were transfected into MDA-MB-231 and MDA-MB-453 cells which were then measured for cell viability. […]

Series [2] has as its system breast cancer cell line MDA-MB-453. Nature of the series: Cell viability / apoptosis in MDA-MB-453. To be noted: for apoptosis: MDA-MB-453; for cell viability: MDA-MB-453 (does not express miR-222). The procedure:
as §1
(§2) The selected linear miRNA triggers (bcl-xL(1)_22_2222 and bcl-xL(2)_222_222) were transfected into the breast cancer cell line MDA-MB-453 to which miR-222 is not endogenous. Cell viability, and the mRNA and protein expression levels of the target gene (bcl-xL) were measured and the results are depicted in FIGS. 33a to 33c.
The hairpin miRNA triggers prepared above were transfected into MDA-MB-231 and MDA-MB-453 cells which were then measured for cell viability. The results are depicted in FIG. 37.
The MCL-1-222-222 miRNA trigger, which utilizes miR-222 to regulate MCL-1 gene, and the BCL-xL-let7f-let7f miRNA trigger, which utilizes miR-let7f to regulate BCL-xL gene, were administered to MDA-MB-231 and MDA-MB-453.
Next, apoptosis was examined when the two types of miRNA triggers were co-administered to cells. The total concentration of the two triggers was 120 nM, which was the same as for individual miRNAs. The results are depicted in FIG. 47.

Series [3] deals with Hela-200c cells. Kind of series: Cell viability / apoptosis (CCK-8) in Hela-200c cells. The procedure: as §1
(§3) The linear miRNA triggers or siRNAs (siLuc and siMcl-1) prepared above were transfected into Hela, Hela-141, and Hela-200c cells which were then measured for cell viability. The results are depicted in FIG. 15.

In series [4] the test system is Hela-141 cells. Nature of the series: Cell viability / apoptosis (CCK-8) in Hela-141 cells. To be noted: Hela-141 cells (express miR-141). The procedure: as §1, §3
The hairpin miRNA triggers prepared above were transfected into Hela and Hela-141 cells which were then assayed for apoptosis. As a control, the siRNA (siMcl-1; Table 14) which can repress the expression of mcl-1 was transfected to Hela and Hela-141 cells and measured for apoptotic activity.

In series [5] the test system is Mcl-1. Nature of the series: Western blot of Mcl-1 protein in Hela-141 cells. To be noted: 5 to 120 nM, compared to the control Luc-141-141. The procedure: (§4) miRNA triggers were transfected into cells in the same manner as in Reference Example 4. After 72 hours, the cells were collected using a cell scraper and lysed with a RIPA buffer (NaCl 150 mM, EDTA 5 mM, Tris 50 mM, NP-40 1.0%, sodium deoxycholate 0.5%, SDS 0.1%). The cell lysate was sonicated 15 times, each for 20 sec, with a halt for 30 sec every sonication. Following centrifugation at 5,000 g for 5 min, the supernatant was taken and used to extract proteins therefrom. A total of 30-40 μg of protein sample was separated in 10-15% SDS-PAGE gel and transferred onto a PVDF membrane through a semi-dry blotting system. The membrane was blocked for 1 hour in 5% skimmed milk and incubated for 2 hours with a 1,000-fold dilution of a primary antibody in, 1% skimmed milk. […] The membrane incubated with the secondary antibody was washed three times with 1×PBST for 10 min each wash, and then reacted with Clarity Western ECL Substrate (#1705061, Bio-Rad), after which images were obtained and analyzed using ChemiDoc (Bio-rad, Hercules, USA).
A linear miRNA trigger (Mcl-1-141-141; Table 15) that could bind to miR-141 and target mcl-1 was prepared while a linear miRNA trigger (Luc-141-141; Table 9) that could bind to miR-141 and target Luc (luciferase) was used as a control. […] Then, proteins were extracted from the Hela-141 cells and quantitatively analyzed for Mcl-1 protein level by western blotting. […]

Series [6] concerns Bcl-xL. Nature of the series: Western blot of Bcl-xL protein. The settings on record: MDA-MB-453. The procedure:
as §4
The cells transfected with the selected miRNA triggers were measured for protein expression levels of the target Bcl-xL and the apoptotic marker cleaved PARP through western blotting, and the results are depicted in FIG. 32b. […]

In series [7] the test system is BCL-xL mRNA. Nature of the series: bcl-xL mRNA expression / gene regulation efficiency. To be noted: MDA-MB-453. The procedure:
In the same manner as in Reference Example 4, miRNA triggers were transfected into cells. After 48 hours, total RNA was extracted using TRIzol (Thermo Fisher Scientific) according to the manufacturer's instruction. The purified RNA was treated with DNase I and then reverse transcribed in the presence of RevertAid reverse transcriptase (Thermo Fisher Scientific), with random hexamers (Thermo Fisher Scientific) serving as primers. For use in amplification of target genes, primers for target genes were added, together with the cDNA, to the SYBR Green PCR master mix (Thermo Fisher Scientific). RT-qPCR was conducted on a StepOnePlus real-time PCR system. Cq values obtained from this analysis was quantitatively analyzed based on the 2^−ΔΔC(t) method.
as §2
After treatment with miRNA triggers, mRNA expression levels of the target gene BCL-xL were measured. […]

In series [8] the test system is MOLM-14, MV4-11 and Hela cells. Kind of series: Fluorescence (IVIS 100) of cells transfected with Cy5.5-labeled trigger. To be noted: Lipofectamine. The procedure:
With the aid of Lipofectamine, the linear miRNA trigger (5′-Cy5.5-miR-155-miR-155-PKR-3′) was transfected into the FLT3-ITD mutant AML cell lines MOLM-14 and MV4-11 and the solid cancer cell line Hela. […] Subsequent animal tests were performed with the trigger.

With “MCL-1-222-222: linear miRNA trigger which utilizes miR-222 to regulate MCL-1 gene; SEQ ID NO 109 (ACCCAGUAGCCAGAUGUAGCUACCCAGUAGCCAGAUGUAGCUCCGAACUACGUAGC; all 2'-O-methyl, backbone not given here)”, the apoptosis result in series [1] (120 nM (total)) is recorded as “no apoptosis was observed”; in series [2] (120 nM (total)) it was “did not induce apoptosis”.

Turning to “MCL-1-let7f-let7f: linear miRNA trigger designed to knock down MCL-1 by using miR-let7f; SEQ ID NO 113 (AACUAUACAAUGAACUACCUCAAACUAUACAAUGAACUACCUCACCGAACUACGUAGC; all 2'-O-methyl, backbone not given here)”, the apoptosis result in series [1] (Examples 12-13) and in series [2] (Example 13) was “none of the two cell lines were induced to undergo apoptosis” throughout.

For the molecule “Mcl-1-141-141: linear miRNA trigger binding miR-141 and targeting mcl-1; SEQ ID NO 65 (Table 25: 110) (CCAUCUUUACCUCACAGUGUUACCAUCUUUACCUCACAGUGUUACCGAACUACGUAGC; all 2'-O-methyl, backbone not given here)”, the “apoptosis / cell viability” value in series [3] is on record as “no significant influence on cell viability”. The apoptosis induced entry in series [4] was “up to 40%”. For the same molecule, in series [5], the Mcl-1 protein level entry is given as “significantly decreased in Mcl-1 protein level”.

Consider “bcl-xL(2)_222_222: linear miRNA trigger binding miR-222 and knocking down bcl-xL; SEQ ID NO 107 (ACCCAGUAGCCAGAUGUAGCUACCCAGUAGCCAGAUGUAGCUUACCUGCCAGCCUCCUU; all 2'-O-methyl, backbone not given here)”, for which, in series [6], the “protein expression level of target bcl-xL” value is recorded as “did not significantly change”. The cell viability entry in series [2] is on record as “did not significantly change”. Moreover, the “mRNA expression level of target bcl-xL” value in series [7] is “did not significantly change”.

B1: bcl-xL(1)_222_222: linear miRNA trigger binding miR-222 and knocking down bcl-xL; SEQ ID NO 106 (nucleic acid)
chain: ACCCAGUAGCCAGAUGUAGCUACCCAGUAGCCAGAUGUAGCUUCUCCUUCCUGCCCUUCCU
modifications: all 2'-O-methyl, backbone not given here
On to B1, for which the “protein expression level of target bcl-xL” value in series [6] is recorded as “did not significantly change”. The cell viability entry in series [2] was “did not significantly change”. Moreover, the “mRNA expression level of target bcl-xL” value in series [7] was “did not significantly change”.

B2: 5′-Cy5.5-miR-155-miR-155-PKR-3′: linear miRNA trigger binding miR-155, targeting PKR, labeled with Cy5.5 fluorophore; SEQ ID NO 69 (conjugate)
chain: UUAUGUUUCAGGUUCAGGGGGAUUAUGUUUCCAGGUUCAGGGGGAUAUGUGAGGCAGAGAACGA
modifications: all 2'-O-methyl, 5' {Cy5.5}, backbone not given here
As for B2, the “Cy5.5 fluorescence of transfected cells” value in series [8] was “Fluorescence was detected”.
